One molecule from US20130137760A1, “GAMBOGIC AMINE, A SELECTIVE TRKA AGONIST WITH NEUROPROTECTIVE ACTIVITY” (EMORY UNIVERSITY, priority 2007, published 2013) can be followed below.

The test system of experiment [1] is T17 cells (TrkA stably transfected SN56 cells). Nature of the experiment: Cell-based apoptotic assay: protection of TrkA-expressing T17 cells from staurosporine-initiated apoptosis, MR(DEVD)2 caspase-3 dye. Details: species or system murine. Particulars: 0.5 μM pre-incubation, then 1 μM STS for 9 h; compared with NGF. From the text: In order to identify small molecules that mimic NGF and activate TrkA, we developed a cell-based apoptotic assay using a cell permeable fluorescent dye MR([…])2, which turns red upon caspase-3 cleavage in apoptotic cells. We utilized a murine cell line T17, which was derived from basal forebrain SN56 cells. T17 cells are TrkA stably transfected SN56 cells. The candidates selectively protecting T17 but not SN56 cells from the first round screen can then be subjected to neurite outgrowth assay for the secondary screen. The positive compounds can be analyzed for TrkA tyrosine phosphorylation, Akt and MAP kinases signaling cascade activation.
T17 cells can be cultured in 96-well plates and preincubated with 10 μM compounds for 30 min, followed by 1 μM staurosporine (STS) treatment for 9 h. MR(DEVD)2 can be introduced to the cells 1 h before examination under fluorescent microscope. The apoptotic cells are red, while live cells have no signal. […] Using the caspase-3-activated fluorescent dye as a visual assay, one can screen the gambogic amine compounds.
To compare the apoptosis inhibitory activity of various compounds, one can pre-incubate gambogic amines derivatives (0.5 μM) with T17 and SN56 cells, followed by 1 μM STS for 9 h. Quantitative analysis of the apoptosis inhibitory activities can determine whether the compounds protect SN56 cells from apoptosis.
T17 cells can be seeded in a 96-well plate at 10,000 cells/well in 100 μl complete medium. Cells can be incubated overnight, followed by 30 min pretreatment with 10 μM compounds in DMSO (10 mM stock concentration from The Spectrum Collection library). The cells can then be treated with 1 μM Staurosporine for 9 h. One h before the termination of the experiment, 10 μM MR(DEVD)2, a cell permeable caspase-3-activated fluorescent dye can be introduced. Cells can be fixed with 4% paraformaldehyde for 15 min. Cells can then be washed with PBS and incubated with 1 μg/ml of Hoechst 33342 for 10 min. Cover slides can then be washed with PBS, mounted, and examined using a fluorescence microscope.

The subject of experiment [2] is hippocampal neurons. Nature of the experiment: Glutamate-triggered neuronal cell death in hippocampal neurons. The class given is cell-based. Particulars: in vitro. On the procedure: To examine whether test compounds can promote neuronal survival, hippocampal neurons can be prepared, and the primary neurons pre-treated with various test compounds for a period of time, for example, 30 min, followed by 50 μM glutamate treatment for a period of time, for example, 16 h.
TrkA is highly expressed in hippocampal neurons (Culmsee et al., 2002; Kume et al., 2000; Zhang et al., 1993). […] To examine whether these compounds can promote neuronal survival, one can prepare hippocampal neurons and pre-treat the primary neurons with various gambogic amine derivatives for 30 min, followed by 50 μM glutamate treatment for 16 h.

For experiment [3], the system named is hippocampus. The experiment is described as follows: Kainic acid-elicited neuronal cell death in mouse brain (TUNEL, hippocampus). The class given is in vivo, C57BL/6 mice. Particulars: mouse brain. From the text:
Kainic acid (KA) is a potent agonist for the AMPA receptor. Peripheral injections of KA result in recurrent seizures and the subsequent degeneration of select populations of neurons in the hippocampus (Nadler et al., 1980; Schauwecker and Steward, 1997; Sperk et al., 1983). It has been shown that the activation of caspase-3 is a necessary component of KA-induced cell death (Faherty et al., 1999). To explore whether test compounds can block the neurotoxicity initiated by KA, the compounds can be subcutaneously injected (for example, at a concentration of 2 mg/kg) into C57BL/6 mice, followed by 25 mg/kg KA. In 5 days, the mice can be perfused and the brains cut to a thickness of 5 μm and mounted on slides.
Kainic acid (KA) is a potent agonist for the AMPA receptor. Peripheral injections of KA result in recurrent seizures and the subsequent degeneration of select populations of neurons in the hippocampus (Nadler et al., 1980; Schauwecker and Steward, 1997; Sperk et al., 1983). It has been shown that the activation of caspase-3 is a necessary component of KA-induced cell death (Faherty et al., 1999). To explore whether gambogic amines can block the neurotoxicity initiated by KA, one can subcutaneously inject 2 mg/kg of a gambogic amine into C57BL/6 mice, followed by 25 mg/kg KA. In 5 days, the mice can be perfused and the brains were cut to a thickness of 5 μm and mounted on slides. TUNEL staining can reveal whether KA provokes enormous apoptosis in the hippocampus, and whether this effect is substantially diminished by the gambogic amine.
Male C57BL/6 mice aged of 60 days can be injected subcutaneously (s.c.) with a single dose of either 30% ethanol in saline or KA (25 mg/kg) (Sigma, Mo.) or the gambogic amine (2 mg/kg) followed by KA. Animals can be continually monitored for 2 h for the onset of seizure activity. At 5 days following treatment, animals can be anesthetized and perfused with 4% paraformaldehyde in 0.1 M phosphate buffered saline. Brains can be removed, post-fixed overnight and processed for paraffin embedding. […]

Experiment [4] deals with hippocampal neurons. Nature of the experiment: OGD (Oxygen and Glucose Deprivation) neuronal cell death in hippocampal neurons. It is filed as cell-based. Particulars: in vitro. As for the experimental part: NGF overexpression decreases infarct volume and neuronal apoptosis in transgenic mice or intraventricular injected mice (Guegan et al., 1998; Luk et al., 2004). NGF also potently protects PC12 cells from apoptosis in an OGD (Oxygen-glucose-deprivation) model (Tabakman et al., 2005). To explore whether test compounds might exert any protective effect on hippocampal neurons in OGD, the primary preparations can be pre-treated with NGF or test compounds 30 min before OGD stimulation. […] Titration assays can show whether the compounds protect neurons in a dose-dependent manner. Therefore, the assay can identify compounds which selectively protect TrkA expression cells and primary neurons from apoptosis.
NGF overexpression decreases infarct volume and neuronal apoptosis in transgenic mice or intraventricular injected mice (Guegan et al., 1998; Luk et al., 2004). NGF also potently protects PC12 cells from apoptosis in an OGD (Oxygen-glucose-deprivation) model (Tabakman et al., 2005). To explore whether gambogic amines exert any protective effect on hippocampal neurons in OGD, one can pre-treat the primary preparations with NGF or various compounds 30 min before OGD stimulation. […] Titration assays can reveal whether or not the compounds protect neurons in a dose-dependent manner. […]

In the case of `CC(C)=CCC[C@]1(C)C=Cc2c(O)c3c(c(CC=C(C)C)c2O1)O[C@]12C(=C[C@@H]4CC1C(C)(C)O[C@@]2(C/C=C(/C)C(N)=O)C4=O)C3=O` [gambogic amide], the “apoptosis inhibitory activity in T17 cells” value in experiment [1] was “strongly suppress apoptosis in T17 cells with protective activities even stronger than NGF”. The “protection of hippocampal neurons from glutamate-triggered neuronal cell death” value in experiment [2] is listed as “potent neurotrophic effects”. In addition, the “block of kainic acid-elicited neuronal cell death in mouse brain” value in experiment [3] is on record as “strongly block”. Also, the “protection of hippocampal neurons from OGD neuronal cell death” value in experiment [4] was “potent neurotrophic effects”.
